{"source": "paper PMC11873635", "about": "(Acta Pharmaceutica Sinica. B, 2024)", "key": {"human SMS2": {"target": "T1, human SMS2 (Homo sapiens, UniProt Q8NHU3)", "T1 sequence (Q8NHU3 1-365)": "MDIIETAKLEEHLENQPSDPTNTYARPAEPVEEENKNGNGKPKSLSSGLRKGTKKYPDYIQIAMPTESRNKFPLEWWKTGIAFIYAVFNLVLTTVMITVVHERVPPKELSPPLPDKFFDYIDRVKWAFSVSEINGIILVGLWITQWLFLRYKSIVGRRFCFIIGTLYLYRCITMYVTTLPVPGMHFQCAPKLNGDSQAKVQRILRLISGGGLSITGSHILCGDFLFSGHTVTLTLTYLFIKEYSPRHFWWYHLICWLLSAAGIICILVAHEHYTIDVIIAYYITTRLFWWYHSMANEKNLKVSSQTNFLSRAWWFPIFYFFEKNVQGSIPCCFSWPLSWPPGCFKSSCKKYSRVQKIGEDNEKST", "assay": "purified SMS enzyme inhibitory assay in vitro", "type": "biochemical"}, "[1]": {"test_system": "Tnf-α, Il-1β and Mmp-9 mRNA in mouse corneas", "assay": "Quantitative PCR analysis of mouse corneas", "type": "in vivo, C57BL/6 mice", "details": "DED mice, twice a day for 7 days"}, "[2]": {"test_system": "SM synthesis (SMS activity) in HCEC", "assay": "Cellular SM synthesis inhibitory assay in HCEC", "type": "cell-based, human"}, "[3]": {"test_system": "TNF-α protein expression in HCEC", "assay": "Western blot of TNF-α protein expression in HCEC under hyperosmotic stress", "type": "cell-based, human", "details": "1 μmol/L; hyperosmotic 550 mOsm"}, "[4]": {"test_system": "human corneal epithelial cells (HCEC)", "assay": "cells", "details": "24 h, read-out: EC50 of protective effect on HCEC viability"}, "murine DED model [5]": {"test_system": "murine DED model", "assay": "Corneal fluorescein staining in murine DED model", "type": "in vivo, C57BL/6 mice", "details": "DED mice; 14l low dose 0.001% twice a day for 7 days"}, "[6]": {"test_system": "lipid content of meibomian glands", "assay": "LC-MS/MS lipidomic analysis of murine meibomian gland tissue", "type": "in vivo, C57BL/6 mice", "details": "DED mice"}, "human SMS1": {"target": "T2, human SMS1 (Homo sapiens, UniProt Q86VZ5)", "T2 sequence (Q86VZ5 1-413)": "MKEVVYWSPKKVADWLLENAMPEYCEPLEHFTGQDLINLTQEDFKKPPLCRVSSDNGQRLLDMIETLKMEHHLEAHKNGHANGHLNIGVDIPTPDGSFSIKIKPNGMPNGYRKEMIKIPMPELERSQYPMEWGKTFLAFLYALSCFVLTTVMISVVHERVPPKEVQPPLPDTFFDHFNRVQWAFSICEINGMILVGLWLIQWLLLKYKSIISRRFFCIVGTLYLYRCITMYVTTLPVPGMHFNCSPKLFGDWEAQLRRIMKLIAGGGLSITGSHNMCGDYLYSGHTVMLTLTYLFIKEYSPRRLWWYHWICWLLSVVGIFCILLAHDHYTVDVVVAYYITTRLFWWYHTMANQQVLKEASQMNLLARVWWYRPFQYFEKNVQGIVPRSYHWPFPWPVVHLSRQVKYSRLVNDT", "assay": "purified SMS enzyme inhibitory assay in vitro", "type": "biochemical"}, "[7]": {"details": "SD rats"}, "[8]": {"test_system": "human corneal epithelial cells (HCEC)", "details": "1 μmol/L; TNF-α (10 ng/mL), 550 mOsm; after incubation for 3 h"}, "[9]": {"test_system": "human corneal epithelial cells (HCEC)", "assay": "Cell viability and toxicity assay", "type": "cell-based", "details": "within 25 μmol/L; 48 h"}, "[10]": {"test_system": "TNFR1-Caspase3 activation in HCEC", "assay": "Western blot of TNFR1, caspase3 and cleaved-caspase3 in HCEC", "type": "cell-based, human", "details": "14l 1/3 and 1 μmol/L; TNF-α 10 ng/mL, 550 mOsm"}, "in vivo": {"assay": "in vivo", "details": "male, SD, rat, topical or ocular, 16 ug"}, "[11]": {"test_system": "human corneal epithelial cells (HCEC)", "details": "14l 1/3 and 1 μmol/L, CsA 1 μmol/L; TNF-α 10 ng/mL, 550 mOsm, 5 h"}, "murine DED model [12]": {"test_system": "murine DED model", "assay": "Tear volume measurement", "type": "in vivo, C57BL/6 mice", "details": "DED mice"}, "[13]": {"details": "14l 0.001% and 0.025%, CsA 0.05%"}, "[14]": {"details": "Conjunctiva, single drop 16 μg/eye"}, "[15]": {"details": "Meibomian glands, single drop 16 μg/eye"}}, "note": "pEC50, pIC50: −log10 of the molar value. Like-named read-outs stand apart in the source and are kept apart here."}
{"compound": "CCCCCCCCOc1ccccc1COc1ccsc1C(=O)Nc1cccnc1", "note": "[14l, 3-((2-(Octyloxy)benzyl)oxy)-N-(pyridin-3-yl)thiophene-2-carboxamide]", "values": [{"measurement": "pIC50", "setting": "human SMS2", "result": 7.55}, {"measurement": "Selectivity ratio", "setting": "human SMS2; IC50, SMS1/IC50, SMS2", "result": 589}, {"measurement": "LLE", "setting": "human SMS2; pIC50, SMS2 – ClogP", "result": 2.21}, {"measurement": "inhibition at 1 µM", "setting": "human SMS2; read-out: SMS2 Inhibition @ 1 μmol/L (%)", "result": 95, "unit": "%"}, {"measurement": "Mmp-9 mRNA expression in cornea", "setting": "[1]; [13]", "result": "decreased significantly in all treatment groups"}, {"measurement": "Tnf-α mRNA expression in cornea", "setting": "[1]; [13]", "result": "decreased significantly in all treatment groups"}, {"measurement": "Il-1β mRNA expression in cornea", "setting": "[1]; 14l high dose 0.025% or CsA 0.05%", "result": "reduced only in 14l high dose group and CsA treatment group"}, {"measurement": "effect on SMS activity of HCEC", "setting": "[2]; 1 μmol/L", "result": "efficient SMS inhibitory activities"}, {"measurement": "pEC50", "setting": "[2]; Homo sapiens, HCEC, 6 h, read-out: SM synthesis inhibitory EC50 in HCEC", "result": 6.52}, {"measurement": "EC50", "setting": "[2]; Homo sapiens, HCEC, read-out: SM synthesis inhibitory EC50 in HCEC", "result": 0.131, "unit": "mg/L"}, {"measurement": "TNF-α protein expression", "setting": "[3]", "result": "inhibited TNF-α protein expression"}, {"measurement": "pEC50", "setting": "[4]", "result": 6.21}, {"measurement": "corneal fluorescein scores, 14l low dose", "setting": "murine DED model [5]", "result": "higher than the two other treatment groups but lower than the DED control group"}, {"measurement": "levels of triglycerides (TG) and cholesterol esters (ChE) in meibomian glands", "setting": "[6]; all treatment groups", "result": "not impacted in all treatment groups"}, {"measurement": "proportion of very long chain SM species in meibomian glands", "setting": "[6]; eye drops twice a day for 7 days", "result": "reduced the proportion of very long chain SM species"}, {"measurement": "ceramide content in meibomian glands", "setting": "[6]; high dosage of 14l (0.025%)", "result": "did not induce an extreme increase and accumulation for ceramide"}, {"measurement": "pIC50", "setting": "human SMS1", "result": 4.80}, {"measurement": "inhibition at 100 µM", "setting": "human SMS1; read-out: SMS1 Inhibition @ 100 μmol/L (%)", "result": 87, "unit": "%"}, {"measurement": "AUC0‒t", "setting": "[7]; [14]", "result": 489.73, "unit": "ng·h/g"}, {"measurement": "AUC0‒∞", "setting": "[7]; [14]", "result": 564.99, "unit": "ng·h/g"}, {"measurement": "AUC0‒t", "setting": "[7]; Cornea, single drop 16 μg/eye", "result": 4339.41, "unit": "ng·h/g"}, {"measurement": "AUC0‒∞", "setting": "[7]; Cornea, single drop 16 μg/eye", "result": 4567.46, "unit": "ng·h/g"}, {"measurement": "AUC0‒t", "setting": "[7]; [15]", "result": 14379.61, "unit": "ng·h/g"}, {"measurement": "AUC0‒∞", "setting": "[7]; [15]", "result": 14670.67, "unit": "ng·h/g"}, {"measurement": "adverse effect during the PK study", "setting": "[7]; single drop 16 μg/eye", "result": "No adverse effect"}, {"measurement": "detection in blood and retina", "setting": "[7]; single drop 16 μg/eye", "result": "not detected in the blood and retina"}, {"measurement": "ocular tissue distribution", "setting": "[7]; single drop 16 μg/eye in 50% HP-β-CD", "result": "distributed mainly in the meibomian glands, conjunctiva and cornea"}, {"measurement": "time-dependent protective effect in HCEC", "setting": "[8]", "result": "apparent and durative protective effect"}, {"measurement": "HCEC viability (MTT)", "setting": "[9]", "result": "less influence on the cell viability"}, {"measurement": "TNF-α-induced TNFR1-Caspase3 activation", "setting": "[10]", "result": "effectively prevent TNF-α-induced TNFR1-Caspase3 activation"}, {"measurement": "Cmax", "setting": "in vivo; conjunctiva", "result": 358, "unit": "ng/g"}, {"measurement": "Tmax", "setting": "in vivo; conjunctiva", "result": 0.25, "unit": "h"}, {"measurement": "half-life", "setting": "in vivo; conjunctiva", "result": 1.3, "unit": "h"}, {"measurement": "Cmax", "setting": "in vivo; cornea", "result": 3050, "unit": "ng/g"}, {"measurement": "Tmax", "setting": "in vivo; cornea", "result": 1, "unit": "h"}, {"measurement": "half-life", "setting": "in vivo; cornea", "result": 1.11, "unit": "h"}, {"measurement": "Cmax", "setting": "in vivo; meibomian glands", "result": 2730, "unit": "ng/g"}, {"measurement": "Tmax", "setting": "in vivo; meibomian glands", "result": 1, "unit": "h"}, {"measurement": "half-life", "setting": "in vivo; meibomian glands", "result": 4.32, "unit": "h"}, {"measurement": "HCEC population integrity and early apoptosis proportion", "setting": "[11]", "result": "a higher integrity of HCEC population and a less early apoptosis proportion"}, {"measurement": "tear volume (Schirmer's test)", "setting": "murine DED model [12]; 14l high dose 0.025% or CsA (Zirun®) 0.05%, twice a day for 7 days", "result": "improved significantly"}, {"measurement": "tear volume (Schirmer's test), 14l low dose", "setting": "murine DED model [12]; 14l low dose 0.001% twice a day for 7 days", "result": "not in 14l low dose group"}]}
